Test results from ChEMBL document CHEMBL3046894, “Synthesis and Herbicidal Activity of Pyrimidinyl Salicylic and Thiosalicylic Acids” (J Pestic Sci, 1996).
Active and inactive are the calls of the source.

Key:
[1] = tested on: Chenopodium album; assay: Pre-emergence herbicidal activity against Chenopodium album assessed as growth inhibition at 25 g a.i/10 a; format: functional, organism-based
[2] = tested on: Gossypium hirsutum; assay: (§1) Post-emergence phytotoxicity against Gossypium hirsutum (cotton) assessed as mortality at 6.3 g a.i/10 a applied 11 days after germination as foliar spray; format: organism-based; details: in vivo, other, 264 h
[3] = tested on: Chenopodium album; assay: Post-emergence herbicidal activity against Chenopodium album assessed as growth inhibition at 25 g a.i/10 a applied 11 days after germination as foliar spray; format: functional, organism-based
[4] = tested on: Persicaria nodosa; assay: Pre-emergence herbicidal activity against Persicaria nodosa assessed as growth inhibition at 25 g a.i/10 a; format: functional, organism-based
[5] = tested on: Echinochloa crus-galli; assay: Post-emergence herbicidal activity against Echinochloa crus-galli (barnyard grass) assessed as growth inhibition at 25 g a.i/10 a applied 11 days after germination as foliar spray; format: functional, organism-based
[6] = tested on: Ipomoea lacunosa; assay: Pre-emergence herbicidal activity against Ipomoea lacunosa assessed as mortality at 1.6 g a.i/10 a; format: functional
[7] = tested on: Ipomoea lacunosa; assay: Post-emergence herbicidal activity against Ipomoea lacunosa assessed as mortality at 1.6 g a.i/10 a applied 11 days after germination as foliar spray; format: functional; details: 264 h
[8] = tested on: Digitaria sanguinalis; assay: Post-emergence herbicidal activity against Digitaria sanguinalis (hairy crabgrass) assessed as growth inhibition at 25 g a.i/10 a applied 11 days after germination as foliar spray; format: functional, organism-based
[9] = tested on: Ipomoea lacunosa; assay: Pre-emergence herbicidal activity against Ipomoea lacunosa assessed as mortality at 6.3 g a.i/10 a; format: functional
[10] = tested on: Zea mays; assay: Post-emergence phytotoxicity against Zea mays (maize) assessed as mortality at 1.6 g a.i/10 a applied 11 days after germination as foliar spray; format: organism-based; details: in vivo, other, 264 h
[11] = tested on: Xanthium strumarium; assay: Post-emergence herbicidal activity against Xanthium strumarium (cocklebur) assessed as mortality at 1.6 g a.i/10 a applied 11 days after germination as foliar spray; format: functional; details: 264 h
[12] = tested on: Abutilon theophrasti; assay: Pre-emergence herbicidal activity against Abutilon theophrasti (velvetleaf) assessed as mortality at 1.6 g a.i/10 a; format: functional
[13] = tested on: Glycine max; assay: Pre-emergence phytotoxicity against Glycine max (soybean) assessed as mortality at 1.6 g a.i/10 a; format: organism-based; details: in vivo, other
[14] = tested on: Xanthium strumarium; assay: Pre-emergence herbicidal activity against Xanthium strumarium (cocklebur) assessed as mortality at 1.6 g a.i/10 a; format: functional; details: Xanthium strumarium, pre-emergence
[15] = tested on: Zea mays; assay: Pre-emergence phytotoxicity against Zea mays (maize) assessed as mortality at 6.3 g a.i/10 a; format: organism-based; details: in vivo, other
[16] = tested on: Persicaria nodosa; assay: Post-emergence herbicidal activity against Persicaria nodosa assessed as growth inhibition at 25 g a.i/10 a applied 11 days after germination as foliar spray; format: functional, organism-based
[17] = tested on: Echinochloa crus-galli; assay: Pre-emergence herbicidal activity against Echinochloa crus-galli (barnyard grass) assessed as growth inhibition at 25 g a.i/10 a; format: functional, organism-based
[18] = tested on: Cyperus iria; assay: Pre-emergence herbicidal activity against Cyperus iria assessed as growth inhibition at 25 g a.i/10 a; format: functional, organism-based
[19] = tested on: Amaranthus retroflexus; assay: Post-emergence herbicidal activity against Amaranthus retroflexus assessed as growth inhibition at 25 g a.i/10 a applied 11 days after germination as foliar spray; format: functional, organism-based
[20] = (§2) Pre-emergence phytotoxicity against Zea mays (maize) assessed as mortality at 1.6 g a.i/10 a; format: organism-based; details: in vivo, 1.6 g a.i/10 a, read-out: mortality
[21] = tested on: Echinochloa crus-galli; assay: Pre-emergence herbicidal activity against Echinochloa crus-galli (barnyard grass) assessed as mortality at 6.3 g a.i/10 a; format: functional
[22] = tested on: Glycine max; assay: Post-emergence phytotoxicity against Glycine max (soybean) assessed as mortality at 1.6 g a.i/10 a applied 11 days after germination as foliar spray; format: organism-based; details: in vivo, other, 264 h
[23] = tested on: Digitaria sanguinalis; assay: Pre-emergence herbicidal activity against Digitaria sanguinalis (hairy crabgrass) assessed as growth inhibition at 25 g a.i/10 a; format: functional, organism-based
[24] = tested on: Xanthium strumarium; assay: Pre-emergence herbicidal activity against Xanthium strumarium (cocklebur) assessed as mortality at 6.3 g a.i/10 a; format: functional; details: Xanthium strumarium, pre-emergence
[25] = tested on: Glycine max; assay: Pre-emergence phytotoxicity against Glycine max (soybean) assessed as mortality at 6.3 g a.i/10 a; format: organism-based; details: in vivo, other
[26] = tested on: Zea mays; assay: Post-emergence phytotoxicity against Zea mays (maize) assessed as mortality at 6.3 g a.i/10 a applied 11 days after germination as foliar spray; format: organism-based; details: in vivo, other, 264 h
[27] = tested on: Cyperus iria; assay: Post-emergence herbicidal activity against Cyperus iria assessed as growth inhibition at 25 g a.i/10 a applied 11 days after germination as foliar spray; format: functional, organism-based
[28] = tested on: Echinochloa crus-galli; assay: Pre-emergence herbicidal activity against Echinochloa crus-galli (barnyard grass) assessed as mortality at 1.6 g a.i/10 a; format: functional; details: Echinochloa crus-galli, pre-emergence
[29] = tested on: Gossypium hirsutum; assay: (§3) Post-emergence phytotoxicity against Gossypium hirsutum (cotton) assessed as mortality at 1.6 g a.i/10 a applied 11 days after germination as foliar spray; format: organism-based; details: in vivo, other, 264 h
[30] = Pre-emergence phytotoxicity against Gossypium hirsutum (cotton) assessed as mortality at 6.3 g a.i/10 a; format: organism-based; details: in vivo, 6.3 g a.i/10 a
[31] = tested on: Amaranthus retroflexus; assay: Pre-emergence herbicidal activity against Amaranthus retroflexus assessed as growth inhibition at 25 g a.i/10 a; format: functional, organism-based
[32] = as §1; format: organism-based; details: in vivo, 6.3 g a.i/10 a
[33] = tested on: Glycine max; assay: Post-emergence phytotoxicity against Glycine max (soybean) assessed as mortality at 6.3 g a.i/10 a applied 11 days after germination as foliar spray; format: organism-based; details: in vivo, other, 264 h
[34] = tested on: Abutilon theophrasti; assay: Pre-emergence herbicidal activity against Abutilon theophrasti (velvetleaf) assessed as mortality at 6.3 g a.i/10 a; format: functional
[35] = tested on: Zea mays; assay: as §2; format: organism-based; details: in vivo, other
[36] = tested on: Echinochloa crus-galli; assay: Post-emergence herbicidal activity against Echinochloa crus-galli (barnyard grass) assessed as mortality at 1.6 g a.i/10 a applied 11 days after germination as foliar spray; format: functional; details: 264 h
[37] = tested on: Gossypium hirsutum; assay: Pre-emergence phytotoxicity against Gossypium hirsutum (cotton) assessed as mortality at 1.6 g a.i/10 a; format: organism-based; details: in vivo, other
[38] = as §3; format: organism-based; details: in vivo, 1.6 g a.i/10 a
[39] = Ipomoea lacunosa, pre-emergence

COc1cc(OC)nc(Oc2cccc([N+](=O)[O-])c2C(=O)O)n1
Toxic: Activity [22] | Activity [26]
active: growth inhibition (GI) [1] | growth inhibition (GI) [3] | growth inhibition (GI) [4] | growth inhibition (GI) [5] | growth inhibition (GI) [16] | growth inhibition (GI) [18] | growth inhibition (GI) [19] | growth inhibition (GI) [27] | growth inhibition (GI) [31]
< 5%: mortality at 16 g/ha [6, 39] | mortality at 16 g/ha [7] | mortality at 63 g/ha [9, 39] | mortality at 16 g/ha [11] | mortality at 16 g/ha ([12]; Abutilon theophrasti, pre-emergence) | mortality at 16 g/ha [14] | mortality [20] | mortality at 63 g/ha ([21]; Echinochloa crus-galli, pre-emergence) | mortality at 63 g/ha [24] | mortality at 16 g/ha [28] | mortality ([30]; read-out: mortality)
inactive: growth inhibition (GI) [8] | growth inhibition (GI) [17] | growth inhibition (GI) [23]
Non-toxic: Activity [2] | Activity [10] | Activity [13] | Activity [15] | Activity [25] | Activity [29]

COc1cc(OC)nc(Sc2cccc(C(F)(F)F)c2C(=O)O)n1
< 50%: Activity [37] | mortality ([30]; read-out: Activity)
>90%: Activity [21]
<50%: Activity [6] | Activity [9] | Activity [12] | Activity [34]
< 5%: mortality at 264 h [32] | mortality at 16 g/ha [36] | mortality at 264 h [38]
Non-toxic: Activity [13] | Activity [35]
Toxic: Activity [10] | Activity [15] | Activity [33] | Activity [22] | Activity [25] | Activity [26]
